According to paper PMC8765437, “GSK3640254 Is a Novel HIV-1 Maturation Inhibitor with an Optimized Virology Profile” (Antimicrobial Agents and Chemotherapy, 2022):
Where two headings read alike, the source gives them in different places.

Tested on: NLRepRlucP373S viruses containing Gag SDMs or gag/pr genes from clinical isolates
Assay: Multiple-cycle replication assay, NLRepRluc reporter viruses in MT-2 cells, luciferase endpoint
Type: cell-based, HIV-1
Text: Multiple-cycle assays using recombinant viruses or clinical isolates were used to assess MI antiviral activity as described previously ([10]). pNLRepRlucP373S (the P373S change is in the Gag gene and converts an outlier polymorphism in the NL4-3 gene to the prevalent amino acid in the population) plasmids containing SDMs in Gag or gag/pr regions from clinical isolates were transfected into HEK 293T cells, and the supernatant containing recombinant virus was harvested after 4 to 5 days. Virus was used to infect MT-2 cells in the presence of a 3-fold serially diluted compound at a final dimethyl sulfoxide (DMSO) concentration of 1%. The inocula of the reporter viruses were determined based on the luciferase activity detected on day 4 postinfection. The MOI (ratio of infectious virions to target cells) of reporter-free laboratory strains and clinical isolates was 0.005, as derived from a tissue culture infectious dose study. Clinical isolates or reporter-free viruses were examined in the reporter CEM-NKR-CCR5-Luc cells or PBMCs at MOIs ranging from 0.005 to 0.01. Each infection started with a drug-free preincubation of the cell-virus mixtures, performed at 37°C and 5% CO2 for either 1 h at 2 times the final cell density (reporter viruses) or 1 h (reporter-free laboratory strains) or 3 h (clinical isolates) using cell pellets in 0.5 mL of medium. After preincubation, cell-virus mixtures were added to compound-containing 96-well plates for a final cell density of either 10,000 (MT-2 cells for reporter viruses), 20,000 (MT-2 and PM1 cells for reporter-free laboratory strains), 200,000 (PBMCs for clinical isolates), or 500,000 (CEM-NKR-CCR5-Luc for reporter-free laboratory strains) cells per well. The CEM-NKR-CCR5-Luc cell assay was performed in the presence of Polybrene (10 μg/mL). Virus growth was determined on days 4 to 5 postinfection for reporter variants or days 5 to 11 for the other viruses. The reporter viruses were detected by a luciferase assay according to manufacturer protocols (Brite-Glo luciferase kit [Promega] for CEM-NKR-CCR5-Luc cells and Dual-Luciferase Reporter 1000 assay system [Promega] for the other cells), and luminescence was detected on a Wallac Trilux. The growth of clinical isolates in PBMCs was quantitated by reverse transcriptase activity in a 96-well scintillation proximity assay (SPA). Twenty microliters of culture supernatants was mixed with 40 μL of reaction cocktail (62.5 mM Tris-HCl [pH 7.8], 100 mM KCl, 0.0625% NP-40, 2.5 mM dithiothreitol [DTT], 6.25 mM MgCl2, 1 mM EGTA, 6.25 μg/mL of poly rA, 2.5 μg/mL of streptavidin SPA beads prebound with biotinylated-dT12-18, and 1 μCi of [^3H]TTP). Mixtures were incubated at 37°C for ∼3 h and quenched with 100 μl of 0.25 M EDTA per well. Luminescence was detected on a Wallac Trilux programmed for tritium counting with SPA beads in opaque plates. The growth of the reporter-free laboratory M-tropic strains and clinical isolates was monitored by a p24 enzyme-linked immunosorbent assay (ELISA; PerkinElmer Life Sciences, Waltham, MA) performed on culture supernatants. […] A 1:1,000 dilution of cell supernatant in PBS was generally observed to fall in the dynamic range of the endpoint signal.
Maximal percent inhibition values were calculated as MPI = 100 – (mean signals at the 2 highest concentrations of compound/mean signal of 2 no-drug control wells) × 100.

C=C(C)[C@@H]1CC[C@]2(NCCN3CCS(=O)(=O)CC3)CC[C@]3(C)[C@H](CC[C@@H]4[C@@]5(C)CC=C(c6ccc(C(=O)O)cc6)C(C)(C)[C@@H]5CC[C@]43C)[C@@H]12 [GSK’795, reference compound]
EC90 (Human immunodeficiency virus 1, MT2, read-out: PBA EC90, subtype B gag/pr 1000156 (V362I)): 600 nM
EC90 (Human immunodeficiency virus 1, MT2, read-out: PBA EC90, subtype B gag/pr 1900120 (V370M)): 6000 nM
EC90 (Human immunodeficiency virus 1, MT2, read-out: PBA EC90, subtype B gag/pr 1900140 (V362I)): 1930 nM
EC90 (Human immunodeficiency virus 1, MT2, read-out: PBA EC90, subtype C gag/pr 93MW690): 1370 nM
EC90 (Human immunodeficiency virus 1, MT2, read-out: PBA EC90, subtype C gag/pr 97ZA003): 2400 nM
EC90 (Human immunodeficiency virus 1, MT2, read-out: PBA EC90, subtype C gag/pr 98CN009): 1870 nM
EC90 (Human immunodeficiency virus 1, MT2, read-out: PBA EC90, subtype C gag/pr 98IN026): 70 nM
EC90 (Human immunodeficiency virus 1, MT2, read-out: PBA EC90, subtype C gag/pr 10215-6): 12000 nM
EC90 (Human immunodeficiency virus 1, MT2, read-out: PBA EC90, subtype C gag/pr 11657-3): 400 nM
EC90 (Human immunodeficiency virus 1, MT2, read-out: PBA EC90, subtype C gag/pr 20635-4): 1700 nM
EC90 (Human immunodeficiency virus 1, MT2, read-out: PBA EC90, subtype C gag/pr 20706-3): 370 nM
EC90 (Human immunodeficiency virus 1, MT2, read-out: PBA EC90, subtype C gag/pr 1300495): 2270 nM
EC90 (Human immunodeficiency virus 1, MT2, read-out: PBA EC90, subtype C gag/pr 1700141): 370 nM
EC90 (Human immunodeficiency virus 1, MT2, read-out: PBA EC90, subtype C gag/pr 1900543): 280 nM
EC90 (Human immunodeficiency virus 1, MT2, read-out: PBA EC90: Mean, minilibrary of HIV-1 polymorphisms, Fig. 1B, GSK’795 mean without 3 viruses lacking measurable EC90): 44800 nM
EC50 (Human immunodeficiency virus 1, MT2, subtype B gag/pr 4NRR (Wild-type)): 1 nM
EC50 (Human immunodeficiency virus 1, MT2, subtype B gag/pr 28-MDR (Wild-type)): 6 nM
EC50 (Human immunodeficiency virus 1, MT2, subtype B gag/pr 92BR014 (V370M)): 4 nM
EC50 (Human immunodeficiency virus 1, MT2, subtype B gag/pr 92BR018 (V, QAΔ)): 3 nM
EC50 (Human immunodeficiency virus 1, MT2, subtype B gag/pr 92TH014 (V362I)): 5 nM
EC50 (Human immunodeficiency virus 1, MT2, subtype B gag/pr 92TH026 (V362I)): 10 nM
EC50 (Human immunodeficiency virus 1, MT2, subtype B gag/pr 92US072 (V362I)): 3 nM
EC50 (Human immunodeficiency virus 1, MT2, subtype B gag/pr 92US729 (Wild-type)): 1 nM
EC50 (Human immunodeficiency virus 1, MT2, subtype B gag/pr 93BR008 (V362I)): 4 nM
EC50 (Human immunodeficiency virus 1, MT2, subtype B gag/pr 93BR009 (V370M)): 2 nM
EC50 (Human immunodeficiency virus 1, MT2, subtype B gag/pr 93BR017 (V, QAΔ)): 16 nM
EC50 (Human immunodeficiency virus 1, MT2, subtype B gag/pr 93BR022 (V, QAΔ)): 10 nM
EC50 (Human immunodeficiency virus 1, MT2, subtype B gag/pr 93BR024 (V362I)): 54 nM
EC50 (Human immunodeficiency virus 1, MT2, subtype B gag/pr 93TH0647 (V362I)): 3 nM
EC50 (Human immunodeficiency virus 1, MT2, subtype B gag/pr 93US141 (V362I)): 9 nM
EC50 (Human immunodeficiency virus 1, MT2, subtype B gag/pr 93US155 (V370T)): 5 nM
EC50 (Human immunodeficiency virus 1, MT2, subtype B gag/pr 411-1-C (Wild-type)): 1 nM
EC50 (Human immunodeficiency virus 1, MT2, subtype B gag/pr 220162 (Wild-type)): 5 nM
EC50 (Human immunodeficiency virus 1, MT2, subtype B gag/pr 400024 (V370M)): 19 nM
EC50 (Human immunodeficiency virus 1, MT2, subtype B gag/pr 400051 (V370A)): 2 nM
EC50 (Human immunodeficiency virus 1, MT2, subtype B gag/pr 1000156 (V362I)): 9 nM
EC50 (Human immunodeficiency virus 1, MT2, subtype B gag/pr 1900120 (V370M)): 8 nM
EC50 (Human immunodeficiency virus 1, MT2, subtype B gag/pr 1900140 (V362I)): 3 nM
EC50 (Human immunodeficiency virus 1, MT2, subtype C gag/pr 93MW690): 10 nM
EC50 (Human immunodeficiency virus 1, MT2, subtype C gag/pr 97ZA003): 6 nM
EC50 (Human immunodeficiency virus 1, MT2, subtype C gag/pr 98CN009): 11 nM
EC50 (Human immunodeficiency virus 1, MT2, subtype C gag/pr 98IN026): 3 nM
EC50 (Human immunodeficiency virus 1, MT2, subtype C gag/pr 10215-6): 7 nM
EC50 (Human immunodeficiency virus 1, MT2, subtype C gag/pr 11657-3): 6 nM
EC50 (Human immunodeficiency virus 1, MT2, subtype C gag/pr 20706-3): 4 nM
EC50 (Human immunodeficiency virus 1, MT2, subtype C gag/pr 1300495): 22 nM
EC50 (Human immunodeficiency virus 1, MT2, subtype C gag/pr 1700141): 8 nM
EC50 (Human immunodeficiency virus 1, MT2, subtype C gag/pr 1900543): 7 nM
MPI (SDM A326T/V362I/V370A): 6%
MPI (SDM A364V): 16%
MPI (SDM R361K/V362I/L363M): 68%
MPI (SDM T332S/V362I/prR41G): 65%
MPI (SDM V362I/V370A): 31%
MPI (SDM V370A): 84%
MPI (SDM Wild type): 94%
MPI (SDM ΔV370): 87%
EC50 (read-out: EC50 (range), Subtype B gag/pr viruses, n=24): 1 to 1400 nM
